Each block holds one sequence with its values, some of them ahead of it.
Biological target: T1, MyD88^TIR (Homo sapiens, UniProt Q99836)
T1 construct: MyD88 (residues 148–296); 6xHis; made in house; host or cells: E. coli BL21 (DE3)
Test: T‐Surf phage library (P8 and P3) selection against MyD88^TIR, four rounds, NGS read counts
Format: binding
Conditions: for P3_MyD88 Rank (after) / P3_MyD88 Rank (before): P3 library; for P8_MyD88 Rank (after) / P8_MyD88 Rank (before): P8 library; for Population: 4th round of selection against MyD88 TIR, share of NGS reads
Summary of the method: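 Coat TIR domain 5 µg mL^−1 overnight; block 0.2% BSA/PBS 1 h, 4 °C; add phage library 1 h, RT; wash ×4 PBS/0.5% Tween‐20; elute 100 mM HCl, neutralize Tris; amplify in TG1, PEG‐precipitate. Repeat to round 4; barcode PCR, NovaSeq, count reads.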

[1] = selection against MyD88 TIR, rank by count after grouping
[2] = selection against MyD88 TIR, rank by count before grouping
[3] = P3_MyD88: rank by count after grouping
[4] = P3_MyD88: rank by count before grouping
[5] = P8_MyD88: rank by count after grouping
[6] = P8_MyD88: rank by count before grouping
[7] = P8_MyD88: rank by NGS read count after grouping
[8] = P8_MyD88: rank by NGS read count before grouping
[9] = selection against MyD88, rank by count after grouping
[10] = selection against MyD88, rank by count before grouping
[11] = P3_MyD88 pool: P3 T-Surf phage library
[12] = 4R selection against MyD88, rank after grouping
[13] = 4R selection against MyD88, rank before grouping
[14] = selection against MyD88, rank after grouping
[15] = selection against MyD88, rank before grouping

T1 sequence (Q99836 148-296): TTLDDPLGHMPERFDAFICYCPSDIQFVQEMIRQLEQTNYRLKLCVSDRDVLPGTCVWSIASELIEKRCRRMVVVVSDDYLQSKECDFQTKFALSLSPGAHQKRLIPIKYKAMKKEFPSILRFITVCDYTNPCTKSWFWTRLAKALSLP

P3_MyD88 Rank (after) [1]: 287 | P3_MyD88 Rank (before) [2]: 3397
Sequence: NELVHEWSSKLMSLGV

Rank (after) [3]: 189 | Rank (before) [4]: 1615
Sequence: YHPLDLPRGKAIKPEILG

Rank (after) [5]: 439 | Rank (before) [6]: 1058
Sequence: DYASYDDNDYYWVTHVLLRHL

Rank (after) [7]: 1017 | Rank (before) [8]: 3222
Sequence: LGYRWGDWEYFVGIEE

Rank (after) [5]: 447 | Rank (before) [6]: 3414
Sequence: PQVLGWFYERLVSLIL

P3_MyD88 Rank (after) [1]: 223 | P3_MyD88 Rank (before) [2]: 1655
Sequence: YTALTNIGIHTFRDND

Rank (after) [7]: 974 | Rank (before) [8]: 1628
Sequence: WDFASNMNSFGIVCI

Rank (after) [7]: 877 | Rank (before) [8]: 1353
Sequence: CLLLSVFQTLFARRTE

Rank (after) [7]: 946 | Rank (before) [8]: 2377
Sequence: DFSHFWLFEAGGDAD

Rank (after) [3]: 177 | Rank (before) [4]: 1886
Sequence: AVGKETNKIQTPLKNA

P8_MyD88 Rank (after) [9]: 695 | P8_MyD88 Rank (before) [10]: 1302
Sequence: FGDHRMWWEDLVGIVD

P8_MyD88 Rank (after) [9]: 691 | P8_MyD88 Rank (before) [10]: 2906
Sequence: DPQDLQCSSERLVSLI

Population [11]: 0.0032%
Sequence: SSFRESLWRLLELSKK

Population [11]: 0.00437%
Sequence: DHHLDLPRGKAIKREILG

Rank (after) [3]: 464 | Rank (before) [4]: 3019
Sequence: SELRVVDDGRVSPMAM

Rank (after) [5]: 424 | Rank (before) [6]: 2396
Sequence: DWVLDYLLPNLERPAG

Population [11]: 0.00291%
Sequence: SSFRVGLWRLLELSKK

Rank (after) [7]: 1024 | Rank (before) [8]: 3747
Sequence: SADYDDVGDRLIRMIE

P8_MyD88 Rank (after) [9]: 754 | P8_MyD88 Rank (before) [10]: 3064
Sequence: DMQDIEWFYVKLIVSI

Rank (after) [3]: 113 | Rank (before) [4]: 1321
Sequence: KMQKWKDALYEAPNL

P8_MyD88 Rank (after) [12]: 663 | P8_MyD88 Rank (before) [13]: 1535
Sequence: WALNELLEILYANETM

P3_MyD88 Rank (after) [12]: 674 | P3_MyD88 Rank (before) [13]: 2608
Sequence: RISAFHKQLVMAVKAQ

P8_MyD88 Rank (after) [9]: 702 | P8_MyD88 Rank (before) [10]: 1457
Sequence: WALDELLQILHARRTE

P8_MyD88 Rank (after) [14]: 506 | P8_MyD88 Rank (before) [15]: 3849
Sequence: NYASSSWALNELLEILK

Rank (after) [5]: 120 | Rank (before) [6]: 174 | Population (P8_MyD88 pool: P8 T-Surf phage library): 0.00809%
Sequence: ELDFSHFWLFDGQATGEA

P8_MyD88 Rank (after) [9]: 742 | P8_MyD88 Rank (before) [10]: 2138
Sequence: YKLALHFRDWLLGAYI

Rank (after) [3]: 418 | Rank (before) [4]: 1439
Sequence: YYLDPSHLRKQRGEVD

P8_MyD88 Rank (after) [1]: 209 | P8_MyD88 Rank (before) [2]: 1112
Sequence: DPQDLEWFYERLFSLI

P3_MyD88 Rank (after) [12]: 621 | P3_MyD88 Rank (before) [13]: 2315
Sequence: LVAHRFSKKMKIFATM

Rank (after) [3]: 436 | Rank (before) [4]: 3365
Sequence: NGHESEIIKEIVDTM

Rank (after) [5]: 392 | Rank (before) [6]: 3031
Sequence: DPQNLQWFYERLVILI

Population [11]: 0.00378%
Sequence: YTALTAAANLSGW

P3_MyD88 Rank (after) [14]: 495 | P3_MyD88 Rank (before) [15]: 3071
Sequence: SEMRVVEDGSVSPLEM

P3_MyD88 Rank (after) [1]: 210 | P3_MyD88 Rank (before) [2]: 3038
Sequence: SELRVVDDGSVSPLK

P3_MyD88 Rank (after) [12]: 630 | P3_MyD88 Rank (before) [13]: 1502
Sequence: YAFTGHLHRYLVLRGA

P3_MyD88 Rank (after) [1]: 262 | P3_MyD88 Rank (before) [2]: 3420
Sequence: NELVHVWSSKANSLW

P8_MyD88 Rank (after) [9]: 726 | P8_MyD88 Rank (before) [10]: 3492
Sequence: PQDQEWFYERIVSLP

P8_MyD88 Rank (after) [12]: 610 | P8_MyD88 Rank (before) [13]: 2690
Sequence: DPQDLARSYERLVRLF

Rank (after) [7]: 962 | Rank (before) [8]: 3010
Sequence: DPQELVWRYERLVSLF

P8_MyD88 Rank (after) [14]: 486 | P8_MyD88 Rank (before) [15]: 3337
Sequence: LGYISIVRGYFVGIER

Rank (after) [3]: 116 | Rank (before) [4]: 973
Sequence: DTKLKKGESIAPERLP

P3_MyD88 Rank (after) [14]: 485 | P3_MyD88 Rank (before) [15]: 3267
Sequence: SSYRQGLWRLLELSKK

P3_MyD88 Rank (after) [12]: 655 | P3_MyD88 Rank (before) [13]: 2985
Sequence: SENYATSPWALMNWC

P8_MyD88 Rank (after) [9]: 697 | P8_MyD88 Rank (before) [10]: 3174
Sequence: EDSIFYAVSSGALDEP

P8_MyD88 Rank (after) [14]: 558 | P8_MyD88 Rank (before) [15]: 1710
Sequence: YAASMRWFGELAKIVG

P3_MyD88 Rank (after) [14]: 553 | P3_MyD88 Rank (before) [15]: 3165
Sequence: SSFREGLWRLLGLRKK

P8_MyD88 Rank (after) [12]: 650 | P8_MyD88 Rank (before) [13]: 2504
Sequence: DYASSWWALDELLRILY

P8_MyD88 Rank (after) [9]: 686 | P8_MyD88 Rank (before) [10]: 1851
Sequence: YASSWWLRELLQIA

Rank (after) [5]: 190 | Rank (before) [6]: 277
Sequence: YASSSWALDELLKILYANETM

P8_MyD88 Rank (after) [12]: 625 | P8_MyD88 Rank (before) [13]: 3756
Sequence: SWAVDELLQILHARELF

— publication PMC11714206, “Massively Parallel Screening of Toll/Interleukin‐1 Receptor (TIR)‐Derived Peptides Reveals Multiple Toll‐Like Receptors (TLRs)‐Targeting Immunomodulatory Peptides” (Advanced Science, 2024)
